The source of these data is patent US10208033B2, “β-carboline, dihydro-β-carboline and tetrahydro-β-carboline alkaloid derivatives and preparation methods same and use in aspects of preventing and treating plant viruses, fungicides and insecticides” (NANKAI UNIVERSITY, priority 2013, dated 2019).

For one data set, the system named is Botrytis cinerea. Briefly: Fungicidal (bactericidal) activity in vitro, PDA colony diameter. The data set is classed as cell-based. Particulars: for inhibition of growth at 50 mg/kg: Botrytis cinerea, 96 h.
Another data set deals with Rhizoctonia cereali. The description is as above. The data set is classed as cell-based. Particulars: for inhibition of growth at 50 mg/kg: Rhizoctonia, 96 h.
The next data set concerns potato late blight. Put plainly: microbe, parasite or virus in culture. The data set is classed as cell-based. Particulars: for inhibition of growth at 50 mg/kg: Phytophthora infestans, 96 h, read-out: Bactericidal activity (%) potato late blight.
The next data set has as its system cucumber fusarium wilt. Put plainly: Fungicidal (bactericidal) activity in vitro, PDA colony diameter. Particulars: for inhibition of growth at 50 mg/kg: Fusarium, 96 h. The data set is classed as cell-based.
The subject of the next data set is Bipolaria maydis. Briefly: organism not typed. The data set is classed as cell-based. Particulars: for inhibition at 50 mg/kg: read-out: Bactericidal activity (%) Bipolaria maydis; for Bactericidal activity (%) Bipolaria maydis: 50 mg/kg.
The test system of a further data set is Phytophthora capsici. Put plainly: Fungicidal (bactericidal) activity in vitro, PDA colony diameter. The data set is classed as cell-based. Particulars: for inhibition of growth at 50 mg/kg: Phytophthora capsici, 96 h.
Another data set has as its system Fusarium graminearumt. Put plainly: microbe, parasite or virus in culture. Particulars: for inhibition of growth at 50 mg/kg: Fusarium, 96 h, read-out: Bactericidal activity (%) Fusarium graminearumt; for Bactericidal activity (%) Fusarium graminearumt: 50 mg/kg. The data set is classed as cell-based.
A further data set has as its system Sclerotinia scleotiorum. Briefly: Fungicidal (bactericidal) activity in vitro, PDA colony diameter. Particulars: for inhibition of growth at 50 mg/kg: Sclerotinia, 96 h. The data set is classed as cell-based.
Data set [1] relates to Colletotrichum orbiculare. The description is as above. The data set is classed as cell-based. Particulars: for inhibition of growth at 50 mg/kg: Colletotrichum orbiculare, 96 h.
The test system of the next data set is Cercospora arachidicola. Described as above. The data set is classed as cell-based. Particulars: for inhibition of growth at 50 mg/kg: Mycosphaerella arachidis, 96 h.
Another data set has as its system Fusarium fujikuroi. The description is as above. The data set is classed as cell-based. Particulars: for inhibition of growth at 50 mg/kg: Fusarium fujikuroi, 96 h.
A further data set has as its system Rhizoctonia solani. The data set is described as above. The data set is classed as cell-based. Particulars: for inhibition of growth at 50 mg/kg: Rhizoctonia solani, 96 h.
Another data set deals with Alternaria solani. The data set is described as above. Particulars: for inhibition of growth at 50 mg/kg: Alternaria solani, 96 h. The data set is classed as cell-based.
The test system of another data set is Macrophoma kawatsukai. Described as above. The data set is classed as cell-based.
Another data set concerns corn borers. Particulars: in vivo.
The test system of data set [2] is tobacco mosaic virus (TMV). Briefly: Anti-TMV in vivo inactivation. Details: species or system tobacco mosaic virus (host Nicotiana tabacum L.cv.Xanthi NN). Particulars: for inhibition at 100 µg/mL / inhibition at 500 µg/mL: Tobacco mosaic virus, read-out: Relative inhibition rate (%) In vivo inactivation.
The next data set concerns armyworms. The data set is classed as in vivo. Particulars: concentration 600 mg/kg.
Data set [3] relates to tobacco mosaic virus (TMV). Briefly: Anti-TMV in vivo therapeutic effect. Particulars: for inhibition at 100 µg/mL / inhibition at 500 µg/mL: Tobacco mosaic virus, read-out: Relative inhibition rate (%) In vivo therapy. Details: species or system tobacco mosaic virus (host Nicotiana tabacum L.cv.Xanthi NN).
Data set [4] has as its system tobacco mosaic virus (TMV). Briefly: Anti-TMV in vivo protective effect. Particulars: for inhibition at 100 µg/mL / inhibition at 500 µg/mL: Tobacco mosaic virus, read-out: Relative inhibition rate (%) In vivo protection. Details: species or system tobacco mosaic virus (host Nicotiana tabacum L.cv.Xanthi NN).
Another data set deals with cotton bollworms. Briefly: whole plant or invertebrate. Particulars: in vivo. The procedure: Experimental method of cotton bollworms: feed and drug mixing method: measure 3 mL of prepared solution and add it to about 27 g of newly prepared feed, thereby obtaining needed concentration through dilution by 10 times.
The test system of data set [5] is tobacco mosaic virus (TMV). Briefly: Anti-TMV in vitro effect (half-leaf soaking). Particulars: for inhibition at 100 µg/mL / inhibition at 500 µg/mL: Tobacco mosaic virus, read-out: Relative inhibition rate (%) In vitro activity. The data set is classed as cell-based, tobacco mosaic virus (host Nicotiana tabacum L.cv.Xanthi NN).
For another data set, the system named is mosquito larvae. Put plainly: whole plant or invertebrate. Particulars: in vivo. The procedure: Experimental method of mosquito larvae: culex pipiens pallens, a normal colony raised indoors. Weigh about 5 mg of the compound for test, put it in a penicillin vial, add 5 mL of acetone (or an appropriate solvent), and shake and dissolve it to obtain a 1000 ppm mother solution. Pipette 0.5 mL of the mother solution, add it to a 100 mL beaker filled with 89.9 mL of water, select 10 mosquito larvae at the beginning of the fourth instar, and pour them to a beaker together with 10 mL of feeding solution. The concentration of the drug solution is 5 ppm. […] Use an aqueous solution containing 0.5 mL of test solvent as a blank.

Counter-ions that a name gives are not always drawn. Like-named read-outs stand apart in the source and are kept apart here.

Take `COC(=O)Nc1nc2ccccc2[nH]1` [Carbendazim]: the inhibition of growth at 50 mg/kg with Botrytis cinerea was under 50%; in the data set with Rhizoctonia cereali (50 mg/kg), 100%; in the data set with potato late blight it was 100%; in the data set on cucumber fusarium wilt (50 mg/kg), under 50%; with Phytophthora capsici (50 mg/kg), under 50%; in the data set with Fusarium graminearumt, 100%. The inhibition of growth at 50 mg/kg in the data set on Sclerotinia scleotiorum (50 mg/kg) was 100%; in data set [1] (50 mg/kg) it was 100%; in the data set with Cercospora arachidicola (50 mg/kg), under 50%; in the data set with Fusarium fujikuroi (50 mg/kg), under 50%; in the data set with Rhizoctonia solani (50 mg/kg), 100%; in the data set on Alternaria solani (50 mg/kg) it was under 50%. In addition, the inhibition at 50 mg/kg with Bipolaria maydis was 100%; with Macrophoma kawatsukai (50 mg/kg), under 50%.

`N#Cc1c(Cl)c(Cl)c(Cl)c(C#N)c1Cl` [Chlorothalonil]: the inhibition of growth at 50 mg/kg with Botrytis cinerea is 100%; with Rhizoctonia cereali (50 mg/kg), 100%; in the data set with potato late blight, 86.4%; in the data set on cucumber fusarium wilt (50 mg/kg), 100%; with Phytophthora capsici (50 mg/kg), 100%; in the data set with Fusarium graminearumt it was under 50%. Moreover, the inhibition of growth at 50 mg/kg with Sclerotinia scleotiorum (50 mg/kg) was under 50%; in [1] (50 mg/kg) it was 91.3%; in the data set with Cercospora arachidicola (50 mg/kg) it was 73.3%; with Fusarium fujikuroi (50 mg/kg), 100%; in the data set on Rhizoctonia solani (50 mg/kg) it was 100%; with Alternaria solani (50 mg/kg) it was 73.3%. The inhibition at 50 mg/kg worked out at 91.3% with Bipolaria maydis and 100% in the data set on Macrophoma kawatsukai (50 mg/kg).

Turning to `O=C(O)[C@@H]1Cc2c([nH]c3ccccc23)[C@H](c2cccnc2)N1` [Ib-6, (1S, 3S)-1-(pyridine-3)-2,3,4,9-tetrahydropyridino [3,4-b] indol-3-formic acid], the “Corn borer Mortality (%)” value in the data set with corn borers came out at 40%. The “Bactericidal activity (%) Botrytis cinerea” value with Botrytis cinerea is listed as 27.3%. Also, the results for the “Relative inhibition rate (%) In vivo inactivation” value in data set [2] (treatment dose 100 μg/mL) and in data set [2] (treatment dose 500 μg/mL) were 0% and 17.5%, respectively. For the same molecule, the “Bactericidal activity (%) Rhizoctonia cereali” value in the data set with Rhizoctonia cereali (50 mg/kg) is 63.2%. Moreover, in the data set with potato late blight, the “Bactericidal activity (%) potato late blight” value was 27.3%. For the same molecule, the “Bactericidal activity (%) Cucumber fusarium wilt” value with cucumber fusarium wilt (50 mg/kg) stood at 26.9%. Further, in the data set on Bipolaria maydis, the “Bactericidal activity (%) Bipolaria maydis” value is listed as 36.4%. Further, the “Armyworm Mortality (%)” value in the data set with armyworms was 45%. In addition, the “Bactericidal activity (%) Phytophthora capsici” value in the data set on Phytophthora capsici (50 mg/kg) was determined as 9.4%. In the data set with Fusarium graminearumt, the “Bactericidal activity (%) Fusarium graminearumt” value was 31.0%. In addition, the results for the “Relative inhibition rate (%) In vivo therapy” value in data set [3] (treatment dose 100 μg/mL) and in data set [3] (treatment dose 500 μg/mL) were 0% and 21.4%, respectively. Moreover, the “Bactericidal activity (%) Sclerotinia scleotiorum” value in the data set with Sclerotinia scleotiorum (50 mg/kg) came to 29.4%. Further, the “Bactericidal activity (%) Colletotrichum orbiculare” value in data set [1] (50 mg/kg) is recorded as 32.1%. Besides, in the data set with Cercospora arachidicola (50 mg/kg), the “Bactericidal activity (%) Cercospora arachidicola” value worked out at 84.6%. The figures for the “Relative inhibition rate (%) In vivo protection” value in data set [4] (treatment dose 100 μg/mL) and in data set [4] (treatment dose 500 μg/mL) were 0% and 24.8%, respectively. Also, the “Cotton bollworm Mortality (%)” value in the data set with cotton bollworms was determined as 20%. Moreover, the “Bactericidal activity (%) Fusarium fujikuroi” value with Fusarium fujikuroi (50 mg/kg) is reported as 14.3%. Further, the “Bactericidal activity (%) Rhizoctonia solani” value with Rhizoctonia solani (50 mg/kg) amounted to 32.9%. For the same molecule, the “Relative inhibition rate (%) In vitro activity” value in [5] (treatment dose 100 μg/mL) is 0%; in [5] (treatment dose 500 μg/mL), 25%. The “Bactericidal activity (%) Alternaria solani” value in the data set with Alternaria solani (50 mg/kg) is 26.3%. Also, the “Bactericidal activity (%) Macrophoma kawatsukai” value with Macrophoma kawatsukai (50 mg/kg) is recorded as 61.9%.

Regarding `CCOC(=O)[C@@H]1Cc2c([nH]c3ccccc23)[C@H](c2cccnc2)N1` [Ib-11, (1S, 3S)-1-(pyridine-3)-2,3,4,9-tetrahydropyridino [3,4-b] indol-3-ethyl formate], in the data set with corn borers, the “Corn borer Mortality (%)” value is 5%. The “Bactericidal activity (%) Botrytis cinerea” value in the data set on Botrytis cinerea came to 40.9%. In addition, the “Mosquito larvae Mortality (%)” value in the data set with mosquito larvae turned out to be 15%. The “Bactericidal activity (%) Rhizoctonia cereali” value in the data set with Rhizoctonia cereali is 65.6%. Further, in the data set with potato late blight, the “Bactericidal activity (%) potato late blight” value is 35.0%. Also, the “Bactericidal activity (%) Cucumber fusarium wilt” value in the data set on cucumber fusarium wilt came out at 23.8%. Moreover, the “Bactericidal activity (%) Bipolaria maydis” value in the data set with Bipolaria maydis was 15.8%. The “Armyworm Mortality (%)” value in the data set with armyworms is 5%. Besides, in the data set on Phytophthora capsici, the “Bactericidal activity (%) Phytophthora capsici” value is 36.4%. The “Bactericidal activity (%) Fusarium graminearumt” value in the data set with Fusarium graminearumt amounted to 28.6%. The “Bactericidal activity (%) Sclerotinia scleotiorum” value in the data set on Sclerotinia scleotiorum amounted to 76.0%. In addition, in data set [1], the “Bactericidal activity (%) Colletotrichum orbiculare” value is listed as 42.9%. The “Bactericidal activity (%) Cercospora arachidicola” value in the data set with Cercospora arachidicola is 42.9%. Besides, the “Cotton bollworm Mortality (%)” value in the data set on cotton bollworms turned out to be 20%. Further, in the data set with Fusarium fujikuroi, the “Bactericidal activity (%) Fusarium fujikuroi” value is 28.6%. The “Bactericidal activity (%) Rhizoctonia solani” value in the data set with Rhizoctonia solani came to 17.9%. Besides, the “Bactericidal activity (%) Alternaria solani” value with Alternaria solani was determined as 55.6%. In the data set with Macrophoma kawatsukai, the “Bactericidal activity (%) Macrophoma kawatsukai” value is recorded as 35.3%.

With `COc1cc2c3c(c4cc(OC)c(OC)cc4c2cc1OC)CN1CCC[C@H]1C3.O=C(O)C[C@@H](O)C(=O)O` [NK-007, reference compound], the “Relative inhibition rate (%) In vivo inactivation” value was found to be 33.9% in data set [2] (treatment dose 100 μg/mL) and 65.2% in data set [2] (treatment dose 500 μg/mL). Besides, the results for the “Relative inhibition rate (%) In vivo therapy” value in [3] (treatment dose 100 μg/mL) and in [3] (treatment dose 500 μg/mL) were 34.9% and 67.2%, respectively. In addition, the “Relative inhibition rate (%) In vivo protection” value is listed as 36.2% in [4] (treatment dose 100 μg/mL) and 67.9% in data set [4] (treatment dose 500 μg/mL). Besides, the “Relative inhibition rate (%) In vitro activity” value in [5] (treatment dose 100 μg/mL) is 38.7%; in data set [5] (treatment dose 500 μg/mL), 65.4%.

On to `CNCC(=O)N[C@@H](CO)C(=O)N[C@H]1[C@H](O)[C@@H](O)[C@H](n2ccc(N)nc2=O)O[C@@H]1C(N)=O` [Ningnanmycin, reference compound], for which the inhibition at 100 µg/mL stood at 38.4% in [2] (treatment dose 100 μg/mL), 20% in [3] (treatment dose 100 μg/mL), 23.1% in data set [4] (treatment dose 100 μg/mL) and 26.8% in [5] (treatment dose 100 μg/mL). In addition, the inhibition at 500 µg/mL in data set [2] (treatment dose 500 μg/mL) came out at 68%; in data set [3] (treatment dose 500 μg/mL) it was 54.2%; in data set [4] (treatment dose 500 μg/mL) it was 65.4%; in data set [5] (treatment dose 500 μg/mL), 73.3%.

For the molecule `NC(=O)c1ncn([C@@H]2O[C@H](CO)[C@@H](O)[C@H]2O)n1` [Virazole, reference compound], the inhibition at 100 µg/mL in data set [2] (treatment dose 100 μg/mL) is 12.9%; in data set [3] (treatment dose 100 μg/mL), 11.9%; in data set [4] (treatment dose 100 μg/mL) it was 16.2%; in data set [5] (treatment dose 100 μg/mL), 15.3%. Also, the inhibition at 500 µg/mL in [2] (treatment dose 500 μg/mL) amounted to 36.3%; in [3] (treatment dose 500 μg/mL), 35.4%; in data set [4] (treatment dose 500 μg/mL) it was 37.6%; in data set [5] (treatment dose 500 μg/mL), 39.5%.
